Inconclusive results are not listed. Activity calls are given as the source filed them.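 Rule for the calls: active = fitted EC50 at most tenfold above the highest tested dose; inconclusive = flat fit with 30 to 70% signal loss, or poor fit; inactive = the rest.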
Tested on: NIH-3T3 fibroblasts viability, Alamar Blue fluorescence, 48 h
Assay: NIH-3T3 fibroblast cytotoxicity, dose response, cytotoxicity control for reversing antifungal drug resistance, cell-based, Alamar Blue fluorescence (AID 434923)

SMILES | EC50
CC(C)COCc1ccc(O)c2ncccc12 | < 0.1 µM
O=C(NNC1=C(C(=O)C(F)(F)F)CCC1)c1ccc(Cl)cc1 | > 26 µM (inactive)
Cc1ccc(Nc2nc(N)c([N+](=O)[O-])c(N3CCC(C)CC3)n2)cc1C | > 26 µM (inactive)
CCOC(=O)N1C(=O)C2(CCCCC2)N(c2ccc(C)cc2)C1=S | > 26 µM (inactive)
O=C(Nc1nnc(SCc2ccc(Cl)cc2)s1)c1ccc2ccccc2n1 | 12 µM
CCCC(=O)NC(c1ccccc1)c1ccc2cccnc2c1O (stereo not given) | > 26 µM (inactive)
Cc1ccc(/C=C/C(=O)c2ccccc(=O)c2O)cc1C | > 26 µM (inactive)
CC(C)N1CCc2c(sc(NC(=O)c3nc4ccccc4s3)c2C(N)=O)C1 | > 26 µM (inactive)
Clc1ccc2c(c1)C(c1cccs1)=NNC(c1cccnc1)=N2 | > 26 µM (inactive)
COc1ccc(-n2nc(C(=O)NCC(=O)N3CCN(c4ccccc4)CC3)c3ccccc3c2=O)c(OC)c1 | > 26 µM (inactive)
O=C(Nc1nnc(-c2ccco2)o1)c1ccc(Cl)cc1 | > 26 µM (inactive)
Nc1nccnc1C(=O)Nc1nnc(SCc2ccc(Cl)cc2)s1 | > 26 µM (inactive)
O=C(Nc1nnc(CCc2ccccc2)s1)c1ccco1 | > 26 µM (inactive)
O=C1/C(=C\c2ccccc2)CCc2c1[nH]c1ccccc21 | > 26 µM (inactive)
O=C(Nc1sc2c(c1C(=O)c1ccc(Cl)cc1)CCCC2)c1cccnc1 | > 26 µM (inactive)
Cc1nc2ccccc2cc1OCc1ccc(F)cc1 | > 26 µM (inactive)
O=C(Nc1nc(-c2ccccn2)cs1)c1ccc(Br)s1 | > 26 µM (inactive)
c1ccc2c(c1)OCC(CNc1ncnc3sccc13)O2 (stereo not given) | > 12 µM (inactive)
O=C(Oc1c(Cl)cc(Cl)c2cccnc12)c1cccs1 | 21.8 µM
CCc1ccc2c(c1)/C(=C/C(=O)c1cccs1)C(=O)N2 | 14 µM
CCOC(=O)c1c(-c2ccccc2Cl)cn2ccccc12 | > 26 µM (inactive)
COc1cc2c(cc1NC(=O)c1ccco1)CCCC2 | > 26 µM (inactive)
COc1ccc(-c2nnc(NC(=O)c3ccc(F)cc3)o2)cc1 | > 26 µM (inactive)
CCCC(=O)NC(c1ccc(Cl)cc1)c1ccc2cccnc2c1O (stereo not given) | 3.44 µM
O=C(Nc1nnc(-c2ccc3c(c2)CCCC3)o1)c1ccc(Cl)cc1Cl | > 26 µM (inactive)

From PubChem BioAssay AID434923 (Broad Institute, 2010)
